According to ChEMBL document CHEMBL1151449, “In vitro activity of DC-159a, a new broad-spectrum fluoroquinolone, compared with that of other agents against drug-susceptible and -resistant pneumococci” (2008):
In brackets after ≈: the same amount, converted by molar mass.

Assays:
Assay type in all cases: functional
[1] = tested on: Streptococcus pneumoniae; assay: Antibacterial activity against Streptococcus pneumoniae HMC 1070 harboring S81F mutation in quinolone-resistant determining regions of GyrA gene, D83N mutation in QRDR of ParC gene and I460V mutation in QRDR of ParE gene by agar dilution method
[2] = tested on: Streptococcus pneumoniae; assay: Antibacterial activity against Streptococcus pneumoniae HMC 1076 harboring S81F mutation in quinolone-resistant determining regions of GyrA gene, D83N mutation in QRDR of ParC gene and I460V mutation in QRDR of ParE gene by agar dilution method
[3] = tested on: Streptococcus pneumoniae; assay: Antibacterial activity against Streptococcus pneumoniae HMC 1147 harboring S81F mutation in quinolone-resistant determining regions of GyrA gene, S79F mutation in QRDR of ParC gene and I460V mutation in QRDR of ParE gene showing efflux to gemifloxacin by agar dilution method
[4] = tested on: Streptococcus pneumoniae; assay: Antibacterial activity against Streptococcus pneumoniae HMC 1150 harboring S81C mutation in quinolone-resistant determining regions of GyrA gene, S79F mutation in QRDR of ParC gene and I460V mutation in QRDR of ParE gene by agar dilution method
[5] = tested on: Streptococcus pneumoniae; assay: Antibacterial activity against Streptococcus pneumoniae HMC 5041 harboring S81F and S79F mutation in quinolone-resistant determining regions of GyrA and ParC genes respectively by agar dilution method
[6] = tested on: Streptococcus pneumoniae; assay: Antibacterial activity against Streptococcus pneumoniae HMC 1071 harboring S81F mutation in quinolone-resistant determining regions of GyrA gene and S79F, K137N mutation in QRDR of ParC gene by agar dilution method
[7] = tested on: Streptococcus pneumoniae; assay: Antibacterial activity against Streptococcus pneumoniae HMC 1074 harboring S81F mutation in quinolone-resistant determining regions of GyrA gene, S79F mutation in QRDR of ParC gene and I460V mutation in QRDR of ParE gene by agar dilution method
[8] = tested on: Streptococcus pneumoniae; assay: Antibacterial activity against Streptococcus pneumoniae HMC 1078 harboring S81F mutation in quinolone-resistant determining regions of GyrA gene, S79F mutation in QRDR of ParC gene and I460V mutation in QRDR of ParE gene by agar dilution method
[9] = tested on: Streptococcus pneumoniae; assay: Antibacterial activity against penicillin-, quinolone-resistant and macrolide-susceptible Streptococcus pneumoniae HMC 1058 harboring S79F, K137N mutation in quinolone-resistant determining regions of ParC gene and 460V mutation in QRDR of ParE gene by broth microdilution method
[10] = tested on: Streptococcus pneumoniae; assay: Antibacterial activity against penicillin-, quinolone-resistant Streptococcus pneumoniae HMC 1541 harboring mutation in L4 protein by broth microdilution method
[11] = tested on: Streptococcus pneumoniae; assay: Antibacterial activity against quinolone-susceptible and penicillin-intermediate Streptococcus pneumoniae HMC 5048 expressing mefA after 50 passages by broth microdilution method
[12] = tested on: Streptococcus pneumoniae; assay: Antibacterial activity against macrolide-, quinolone-susceptible and penicillin-intermediate Streptococcus pneumoniae HMC 99 after 50 passages by broth microdilution method
[13] = tested on: Streptococcus pneumoniae; assay: Antibacterial activity against Streptococcus pneumoniae HMC 3041 after 50 passages by broth microdilution method
[14] = tested on: Streptococcus pneumoniae; assay: (§1) Antibacterial activity against penicillin-, macrolide- and quinolone-susceptible Streptococcus pneumoniae HMC 63 harboring S81F mutation in quinolone-resistant determining regions of GyrA gene, D83Y mutation in QRDR of ParC gene and I460V mutation in QRDR of ParE gene after 34 passages with gemifloxacin measured after 10 daily antibiotic-free subculturing by multi-step resistance selection technique
[15] = tested on: Streptococcus pneumoniae; assay: (§2) Antibacterial activity against macrolide-, quinolone-susceptible and penicillin-intermediate Streptococcus pneumoniae HMC 100 harboring S81Y and S79Y mutation in quinolone-resistant determining regions of GyrA and ParC genes respectively after 42 passages with levofloxacin measured after 10 daily antibiotic-free subculturing by multi-step resistance selection technique
[16] = tested on: Streptococcus pneumoniae; assay: as §2, with “harboring” for “harboring S81Y and”, “of” for “of GyrA and”, “gene” for “genes respectively”, “34” for “42”, “gemifloxacin” for “levofloxacin”
[17] = tested on: Streptococcus pneumoniae; assay: as §1, with “penicillin-resistant” for “penicillin-, macrolide-”, “228 expressing ermB and” for “63”, “D83N” for “D83Y”, “28” for “34”, “DC-159a” for “gemifloxacin”
[18] = tested on: Streptococcus pneumoniae; assay: as §1, with “penicillin-resistant” for “penicillin-, macrolide-”, “3583 expressing mefA and” for “63”, “D83N” for “D83Y”, “49” for “34”, “DC-159a” for “gemifloxacin”
[19] = tested on: Streptococcus pneumoniae; assay: (§3) Antibacterial activity against penicillin-resistant and quinolone-susceptible Streptococcus pneumoniae HMC 3583 expressing mefA and harboring S81F mutation in quinolone-resistant determining regions of GyrA gene and I460V, D435N mutation in QRDR of ParE gene after 46 passages with gatifloxacin measured after 10 daily antibiotic-free subculturing by multi-step resistance selection technique
[20] = tested on: Streptococcus pneumoniae; assay: Antibacterial activity against penicillin-susceptible Streptococcus pneumoniae ATCC 49619 by agar dilution method
[21] = tested on: Streptococcus pneumoniae; assay: Antibacterial activity against penicillin-resistant Streptococcus pneumoniae […] by agar dilution method
[22] = tested on: Streptococcus pneumoniae; assay: Antibacterial activity against azithromycin-susceptible Streptococcus pneumoniae ATCC 49619 by agar dilution method
[23] = tested on: Streptococcus pneumoniae; assay: Antibacterial activity against quinolone-susceptible Streptococcus pneumoniae ATCC 49619 by agar dilution method
[24] = tested on: Streptococcus pneumoniae; assay: Antibacterial activity against Streptococcus pneumoniae HMC 2536 harboring S81Y mutation in quinolone-resistant determining regions of GyrA gene, S79F, K137N mutation in QRDR of ParC gene and I460V mutation in QRDR of ParE gene by agar dilution method
[25] = tested on: Streptococcus pneumoniae; assay: Antibacterial activity against Streptococcus pneumoniae HMC 1062 harboring S81F mutation in quinolone-resistant determining regions of GyrA gene, S79F mutation in QRDR of ParC gene and I460V mutation in QRDR of ParE gene by agar dilution method
[26] = tested on: Streptococcus pneumoniae; assay: Antibacterial activity against Streptococcus pneumoniae HMC 1068 harboring E85K mutation in quinolone-resistant determining regions of GyrA gene, S79Y, K137N mutation in QRDR of ParC gene and I460V mutation in QRDR of ParE gene showing efflux to ciprofloxacin, levofloxacin by agar dilution method
[27] = tested on: Streptococcus pneumoniae; assay: Antibacterial activity against penicillin-susceptible, quinolone-resistant Streptococcus pneumoniae 1072 expressing ermB and harboring S81F mutation in quinolone-resistant determining regions of GyrA gene, S79Y mutation in QRDR of ParC gene and I460V mutation in QRDR of ParE gene by broth microdilution method
[28] = tested on: Streptococcus pneumoniae; assay: Antibacterial activity against macrolide-, quinolone-susceptible and penicillin-intermediate Streptococcus pneumoniae HMC 99 by broth microdilution method
[29] = tested on: Streptococcus pneumoniae; assay: Antibacterial activity against quinolone-susceptible and penicillin-intermediate Streptococcus pneumoniae HMC 441 expressing ermB by broth microdilution method
[30] = tested on: Streptococcus pneumoniae; assay: as §1, with “macrolide-susceptible” for “macrolide-”, “quinolone-resistant” for “quinolone-susceptible”, “1074” for “63”, “S81F, E85K” for “S81F”, “S79F” for “D83Y”, “27” for “34”
[31] = tested on: Streptococcus pneumoniae; assay: as §3, with “228” for “3583”, “ermB” for “mefA”, “GyrA gene, S79Y mutation in QRDR of ParC” for “GyrA”, “I460V” for “I460V, D435N”, “38” for “46”

| Compound | MIC [1] [µg/mL] | MIC [2] [µg/mL] | MIC [3] [µg/mL] | MIC [4] [µg/mL] | MIC [5] [µg/mL] | MIC [6] [µg/mL] | MIC [7] [µg/mL] | MIC [8] [µg/mL] | MIC [9] [µg/mL] | MIC [10] [µg/mL] | MIC [11] [µg/mL] | MIC [13] [µg/mL] | MIC [14] [µg/mL] | MIC [15] [µg/mL] | MIC [16] [µg/mL] | MIC [17] [µg/mL] | MIC [18] [µg/mL] | MIC [19] [µg/mL] | MIC [24] [µg/mL] | MIC [25] [µg/mL] | other results |
| --- | --- | --- | --- | --- | --- | --- | --- | --- | --- | --- | --- | --- | --- | --- | --- | --- | --- | --- | --- | --- | --- |
| COc1c(N2CC3(CC3)[C@](C)(N)C2)c(F)cc2c(=O)c(C(=O)O)cn([C@@H]3C[C@@H]3F)c12.O | 1 | 0.5 | 1 | 0.5 | 1 | 1 | 0.5 | 1 | 0.5 | 1 | 0.125 | 0.125 | 1 | 1 | 0.5 | 1 | 1 | 1 | 1 | 1 | MIC [12]: 0.125 µg/mL; MIC50 [20]: 0.12 µg/mL; MIC90 [20]: 0.25 µg/mL; MIC50 [21]: 0.12 µg/mL; MIC90 [21]: 0.5 µg/mL; MIC50 [22]: 0.12 µg/mL; MIC90 [22]: 0.5 µg/mL; MIC50 [23]: 0.12 µg/mL; MIC90 [23]: 0.12 µg/mL; MIC [26]: 1 µg/mL; MIC [27]: 1 µg/mL; MIC [28]: 0.12 µg/mL; MIC [29]: 0.12 µg/mL; MIC [30]: 4 µg/mL; MIC [31]: 1 µg/mL |
| COc1c(N2CCNC(C)C2)c(F)cc2c(=O)c(C(=O)O)cn(C3CC3)c12 (stereo not given) [GATIFLOXACIN] | 4 (≈ 10.7 µM) | 4 (≈ 10.7 µM) | 8 (≈ 21.3 µM) | 4 (≈ 10.7 µM) | 4 (≈ 10.7 µM) | 8 (≈ 21.3 µM) | 4 (≈ 10.7 µM) | 8 (≈ 21.3 µM) | 4 (≈ 10.7 µM) | 4 (≈ 10.7 µM) | 0.5 (≈ 1.33 µM) | 0.5 (≈ 1.33 µM) | 8 (≈ 21.3 µM) | 8 (≈ 21.3 µM) | 4 (≈ 10.7 µM) | 4 (≈ 10.7 µM) | 4 (≈ 10.7 µM) | 8 (≈ 21.3 µM) | 16 (≈ 42.6 µM) | 16 (≈ 42.6 µM) | MIC [12]: 0.5 µg/mL (≈ 1.33 µM); MIC50 [20]: 0.5 µg/mL (≈ 1.33 µM); MIC90 [20]: 1 µg/mL (≈ 2.66 µM); MIC50 [21]: 0.5 µg/mL (≈ 1.33 µM); MIC90 [21]: 4 µg/mL (≈ 10.7 µM); MIC50 [22]: 0.5 µg/mL (≈ 1.33 µM); MIC90 [22]: 4 µg/mL (≈ 10.7 µM); MIC50 [23]: 0.5 µg/mL (≈ 1.33 µM); MIC90 [23]: 0.5 µg/mL (≈ 1.33 µM); MIC [26]: 8 µg/mL (≈ 21.3 µM); MIC [27]: 8 µg/mL (≈ 21.3 µM); MIC [28]: 0.12 µg/mL (≈ 0.32 µM); MIC [29]: 0.25 µg/mL (≈ 0.666 µM); MIC [30]: 16 µg/mL (≈ 42.6 µM); MIC [31]: 4 µg/mL (≈ 10.7 µM) |
| CO/N=C1\CN(c2nc3c(cc2F)c(=O)c(C(=O)O)cn3C2CC2)CC1CN (stereo not given) [GEMIFLOXACIN] | 0.25 (≈ 0.642 µM) | 0.5 (≈ 1.28 µM) | 1 (≈ 2.57 µM) | 0.25 (≈ 0.642 µM) | 0.5 (≈ 1.28 µM) | 0.5 (≈ 1.28 µM) | 0.5 (≈ 1.28 µM) | 0.5 (≈ 1.28 µM) | 0.12 (≈ 0.308 µM) | 0.5 (≈ 1.28 µM) | 0.125 (≈ 0.321 µM) | 0.03 (≈ 0.077 µM) | 0.5 (≈ 1.28 µM) | 0.5 (≈ 1.28 µM) | 1 (≈ 2.57 µM) | 1 (≈ 2.57 µM) | 4 (≈ 10.3 µM) | 8 (≈ 20.5 µM) | 0.125 (≈ 0.321 µM) | 1 (≈ 2.57 µM) | MIC [12]: 0.125 µg/mL (≈ 0.321 µM); MIC50 [20]: 0.03 µg/mL (≈ 0.077 µM); MIC90 [20]: 0.12 µg/mL (≈ 0.308 µM); MIC50 [21]: 0.03 µg/mL (≈ 0.077 µM); MIC90 [21]: 0.25 µg/mL (≈ 0.642 µM); MIC50 [22]: 0.03 µg/mL (≈ 0.077 µM); MIC90 [22]: 0.25 µg/mL (≈ 0.642 µM); MIC50 [23]: 0.03 µg/mL (≈ 0.077 µM); MIC90 [23]: 0.06 µg/mL (≈ 0.154 µM); MIC [26]: 0.5 µg/mL (≈ 1.28 µM); MIC [27]: 0.5 µg/mL (≈ 1.28 µM); MIC [28]: 0.06 µg/mL (≈ 0.154 µM); MIC [29]: 0.016 µg/mL (≈ 0.0411 µM); MIC [30]: 2 µg/mL (≈ 5.14 µM); MIC [31]: > 64 µg/mL |
| COc1c(N2C[C@@H]3CCCN[C@@H]3C2)c(F)cc2c(=O)c(C(=O)O)cn(C3CC3)c12 [MOXIFLOXACIN] | 4 (≈ 9.96 µM) | 2 (≈ 4.98 µM) | 4 (≈ 9.96 µM) | 1 (≈ 2.49 µM) | 4 (≈ 9.96 µM) | 4 (≈ 9.96 µM) | 2 (≈ 4.98 µM) | 4 (≈ 9.96 µM) | 2 (≈ 4.98 µM) | 4 (≈ 9.96 µM) | 0.125 (≈ 0.311 µM) | 0.25 (≈ 0.623 µM) | 4 (≈ 9.96 µM) | 4 (≈ 9.96 µM) | 2 (≈ 4.98 µM) | 2 (≈ 4.98 µM) | 2 (≈ 4.98 µM) | 4 (≈ 9.96 µM) | 4 (≈ 9.96 µM) | 4 (≈ 9.96 µM) | MIC [26]: 4 µg/mL (≈ 9.96 µM); MIC [27]: 4 µg/mL (≈ 9.96 µM); MIC [29]: 0.12 µg/mL (≈ 0.299 µM); MIC [30]: 16 µg/mL (≈ 39.9 µM); MIC [31]: 4 µg/mL (≈ 9.96 µM) |
